Data taken from US10703757B2, “Compounds and methods for CDK8 modulation and indications therefor” (Plexxikon Inc., priority 2016, dated 2020).

Tested on: CDK8 (phosphorylation of STAT1 at serine 727 in A549 cells)
Experiment: Cell based Phospho-STAT1 assay (IFNγ-stimulated A549 cells, AlphaLISA)
Conditions: Homo sapiens, A549, A549 cells, phospho-STAT1 after IFNγ stimulation
Protocol: Determine Inhibitor Activity Against CDK8 in Cell Based Phospho-STAT1 Assay
This assay measures the phosphorylation of the CDK8 substrate STAT1 following Interferon-gamma (IFNγ) stimulation^1. The lung carcinoma cell line A549 is seeded in a 96 well plate in 50 μL of culture media at 5×10^4 cells/well and incubated at 37° C. overnight. Serial dilutions of compounds (in total volume of 50 μL culture media) are added to the cells and incubated at 37° C. for one hour. Human IFNγ (R&D Systems) is added to the cells at a 10 ng/mL final concentration. 4 wells containing DMSO treated cells stimulated with IFNγ serve as high controls and 4 wells containing DMSO treated unstimulated cells serve as low controls. After 30 minute IFNγ stimulation at 37° C., the culture media is removed and 50 μL of 1×AlphaLISA lysis buffer (PerkinElmer GA, USA) is added to each well. 5 μL cell lysate is transferred to a 384 well AlphaPlate (PerkinElmer GA, USA) and 5 μL containing 0.156 nM Phospho-STAT1 (Ser727) rabbit monoclonal antibody (Cell Signaling Technology), 0.156 nM Mouse Anti-STAT1 antibody (BD Transduction Laboratories), and 10 μg/mL Anti-rabbit IgG AlphaLISA acceptor beads (PerkinElmer GA, USA) diluted in 1× AlphaLISA immunoassay buffer (PerkinElmer GA, USA) is added to the cell lysates and incubated at room temperature for 90 minutes. 5 μL Anti-Mouse IgG Alpha donor beads diluted in 1× AlphaLISA immunoassay buffer (PerkinElmer GA, USA) is added to the reaction mixture and incubated at room temperature for 90 minutes. Upon excitation of these beads with laser light at 680 nm, singlet oxygen is produced. This singlet oxygen is rapidly quenched, unless the AlphaLISA Anti-Rabbit IgG acceptor beads are in close proximity, in which case a proximity signal can be measured at […]. In the presence of cellular CDK8 catalytic activity, there is a very strong proximity signal. Selective CDK8 inhibitors affect a decrease in this proximity signal through a decrease in phosphorylation of STAT1 at serine 727. The percentage inhibition at individual concentrations relative to high and low controls is calculated. The data are analyzed by using nonlinear regression to generate IC50 values.

Structure (SMILES)	IC50 [µM]
Cn1cc(-c2ccc(-c3cnc4cccc(NCC5CCOCC5)n34)cc2)cn1 [Compound P-0391, 3-(4-(1-methyl-1H-pyrazol-4-yl)phenyl)-N-((tetrahydro-2H-pyran-4-yl)methyl)imidazo[1,2-a]pyridin-5-amine]	0.1 to 1
Cn1cc(-c2ccc(-c3cnc4cccc(N5CCNCC5)n34)cc2)cn1 [Compound P-0393, 3-(4-(1-methyl-1H-pyrazol-4-yl)phenyl)-5-(piperazin-1-yl)imidazo[1,2-a]pyridine]	1 to 10
CN1CCN(c2cccc3ncc(-c4ccc(-c5cnn(C)c5)cc4)n23)CC1 [Compound P-0394, 3-(4-(1-methyl-1H-pyrazol-4-yl)phenyl)-5-(4-methylpiperazin-1-yl)imidazo[1,2-a]pyridine]	0.1 to 1
Cn1cc(-c2ccc(-c3cnc4cccc(N5CCOCC5)n34)cc2)cn1 [Compound P-0395, 4-(3-(4-(1-methyl-1H-pyrazol-4-yl)phenyl)imidazo[1,2-a]pyridin-5-yl)morpholine]	1 to 10
Cn1cc(-c2ccc(-c3cnc4cccc(N5CCC(C)(O)CC5)n34)cc2)cn1 [Compound P-0396, 4-methyl-1-(3-(4-(1-methyl-1H-pyrazol-4-yl)phenyl)imidazo[1,2-a]pyridin-5-yl)piperidin-4-ol]	0.1 to 1
Cn1cc(-c2ccc(-c3cnc4cccc(N5CCC(O)CC5)n34)cc2)cn1 [Compound P-0397, 1-(3-(4-(1-methyl-1H-pyrazol-4-yl)phenyl)imidazo[1,2-a]pyridin-5-yl)piperidin-4-ol]	0.1 to 1
COC(=O)C1(C)CCN(c2cccc3ncc(-c4ccc(-c5cnn(C)c5)cc4)n23)CC1 [Compound P-0399, methyl 4-methyl-1-(3-(4-(1-methyl-1H-pyrazol-4-yl)phenyl)imidazo[1,2-a]pyridin-5-yl)piperidine-4-carboxylate]	1 to 10
Cn1cc(-c2ccc(-c3cnc4cccc(N5CCC(C(N)=O)CC5)n34)cc2)cn1 [Compound P-0400, 1-(3-(4-(1-methyl-1H-pyrazol-4-yl)phenyl)imidazo[1,2-a]pyridin-5-yl)piperidine-4-carboxamide]	0.1 to 1
Cn1cc(-c2ccc(-c3cnc4cccc(N5CCC(C)(C#N)CC5)n34)cc2)cn1 [Compound P-0401, 4-methyl-1-(3-(4-(1-methyl-1H-pyrazol-4-yl)phenyl)imidazo[1,2-a]pyridin-5-yl)piperidine-4-carbonitrile]	0.0001 to 0.1
Cn1ncc2cc(-c3cnn4cccc(N5CCC(C)(C#N)CC5)c34)ccc21 [Compound P-0403, 4-methyl-1-(3-(1-methyl-1H-indazol-5-yl)pyrazolo[1,5-a]pyridin-4-yl)piperidine-4-carbonitrile]	0.0001 to 0.1
CC1(C#N)CCN(c2cccn3ncc(-c4ccc(-c5cnn(C(F)F)c5)cc4)c23)CC1 [Compound P-0404, 1-[3-[4-[1-(difluoromethyl)pyrazol-4-yl]phenyl]pyrazolo[1,5-a]pyridin-4-yl]-4-methyl-piperidine-4-carbonitrile]	0.0001 to 0.1
Cn1ncc2cc(-c3cnn4cccc(N5CCC(C#N)CC5)c34)ccc21 [Compound P-0405, 1-(3-(1-methyl-1H-indazol-5-yl)pyrazolo[1,5-a]pyridin-4-yl)piperidine-4-carbonitrile]	0.0001 to 0.1
CC(C)(O)C#Cc1cccn2ncc(-c3ccc(OCCN4CCCCC4)cc3)c12 [Compound P-0406, 2-methyl-4-(3-(4-(2-(piperidin-1-yl)ethoxy)phenyl)pyrazolo[1,5-a]pyridin-4-yl)but-3-yn-2-ol]	0.1 to 1
Cn1cc(C#Cc2cnc3cccc(N4CCC(C#N)CC4)n23)cn1 [Compound P-0409, 1-(3-((1-methyl-1H-pyrazol-4-yl)ethynyl)imidazo[1,2-a]pyridin-5-yl)piperidine-4-carbonitrile]	0.1 to 1
CC(C)(O)C#Cc1cccn2ncc(-c3ccc(Oc4ccccc4)cc3)c12 [Compound P-0410, 2-methyl-4-(3-(4-phenoxyphenyl)pyrazolo[1,5-a]pyridin-4-yl)but-3-yn-2-ol]	1 to 10
CC(C)(O)C#Cc1cccn2ncc(-c3ccc(NS(=O)(=O)C4CC4)cc3)c12 [Compound P-0412, N-(4-(4-(3-hydroxy-3-methylbut-1-yn-1-yl)pyrazolo[1,5-a]pyridin-3-yl)phenyl)cyclopropane-sulfonamide]	0.1 to 1

Structure (SMILES)	IC50 [µM]
CC(C)(O)C#Cc1cccn2ncc(-c3ccc(S(=O)(=O)N4CCCCC4)cc3)c12 [Compound P-0413, 2-methyl-4-(3-(4-(piperidin-1-ylsulfonyl)phenyl)pyrazolo[1,5-a]pyridin-4-yl)but-3-yn-2-ol]	1 to 10
Cn1ncc2cc(-c3cnn4cccc(C#CC(C)(C)O)c34)ccc21 [Compound P-0414, 2-methyl-4-(3-(1-methyl-1H-indazol-5-yl)pyrazolo(1,5-a]pyridin-4-yl)but-3-yn-2-ol]	0.0001 to 0.1
CNC(=O)C1CC=C(c2cccc3ncc(-c4ccc(-c5cnn(C)c5)cc4)n23)CC1 (centres unmarked) [Compound P-0417, N-methyl-4-(3-(4-(1-methyl-1H-pyrazol-4-yl)phenyl)imidazo[1,2-a]pyridin-5-yl)cyclohex-3-ene-1-carboxamide]	0.1 to 1
Cn1cc(-c2ccc(-c3cnc4cccc(C5=CCN(S(C)(=O)=O)CC5)n34)cc2)cn1 [Compound P-0419, 3-(4-(1-methyl-1H-pyrazol-4-yl)phenyl)-5-(1-(methylsulfonyl)-1,2,3,6-tetrahydropyridin-4-yl)imidazo[1,2-a]pyridine]	0.1 to 1
CCOC(=O)C1CC=C(c2cccc3ncc(-c4ccc(-c5cnn(C)c5)cc4)n23)CC1 (centres unmarked) [Compound P-0420, ethyl 4-(3-(4-(1-methyl-1H-pyrazol-4-yl)phenyl)imidazo[1,2-a]pyridin-5-yl)cyclohex-3-ene-1-carboxylate]	1 to 10
Cn1cc(-c2ccc(-c3cnn4cccc(N5CCC(C#N)CC5)c34)cc2)cn1 [Compound P-0422, 1-(3-(4-(1-methyl-1H-pyrazol-4-yl)phenyl)pyrazolo[1,5-a]pyridin-4-yl)piperidine-4-carbonitrile]	0.0001 to 0.1
N#CC1CCN(c2cccn3ncc(-c4ccc(-c5nc(C6CC6)no5)cc4)c23)CC1 [Compound P-0423, 1-(3-(4-(3-cyclopropyl-1,2,4-oxadiazol-5-yl)phenyl)pyrazolo[1,5-a]pyridin-4-yl)piperidine-4-carbonitrile]	0.0001 to 0.1
N#CC1CCN(c2cccn3ncc(-c4ccc(-c5nc(C(F)(F)F)no5)cc4)c23)CC1 [Compound P-0424, 1-(3-(4-(3-(trifluoromethyl)-1,2,4-oxadiazol-5-yl)phenyl)pyrazolo[1,5-a]pyridin-4-yl)piperidine-4-carbonitrile]	1 to 10
Cn1cc(-c2ccc(-c3cnn4cccc(-c5ccnc(C#N)c5)c34)cc2)cn1 [Compound P-0425, 4-[3-[4-(1-methylpyrazol-4-yl)phenyl]pyrazolo[1,5-a]pyridin-4-yl]pyridine-2-carbonitrile]	1 to 10
Cn1cc(-c2ccc(-c3cnn4cccc(C#CC(O)c5ccccc5)c34)cc2)cn1 (centres unmarked) [Compound P-0426, 3-[3-[4-(1-methylpyrazol-4-yl)phenyl]pyrazolo[1,5-a]pyridin-4-yl]-1-phenyl-prop-2-yn-1-ol]	0.0001 to 0.1
Cn1cc(-c2ccc(-c3cnc4cccc(OC5CCOCC5)n34)cc2)cn1 [Compound P-0427, 3-(4-(1-methyl-1H-pyrazol-4-yl)phenyl)-5-((tetrahydro-2H-pyran-4-yl)oxy)imidazo[1,2-a]pyridine]	0.1 to 1
Cn1cc(C#Cc2cccn3ncc(-c4ccc(-c5cnn(C)c5)cc4)c23)cn1 [Compound P-0428, 4-((1-methyl-1H-pyrazol-4-yl)ethynyl)-3-(4-(1-methyl-1H-pyrazol-4-yl)phenyl)pyrazolo[1,5-a]pyridine]	0.1 to 1
Cn1cc(-c2ccc(-c3cnn4cccc(-c5cn[nH]c5)c34)cc2)cn1 [Compound P-0430, 3-(4-(1-methyl-1H-pyrazol-4-yl)phenyl)-4-(1H-pyrazol-4-yl)pyrazolo[1,5-a]pyridine]	1 to 10
Cn1cc(-c2ccc(-c3cnn4cccc(-c5cnn(C(=O)OC(C)(C)C)c5)c34)cc2)cn1 [Compound P-0431, tert-butyl 4-(3-(4-(1-methyl-1H-pyrazol-4-yl)phenyl)pyrazolo[1,5-a]pyridin-4-yl)-1H-pyrazole-1-carboxylate]	1 to 10
Cn1cc(-c2ccc(-c3c[nH]c4ncc(Br)c(N5CCC(C#N)CC5)c34)cc2)cn1 [Compound P-0432, 1-[5-bromo-3-[4-(1-methylpyrazol-4-yl)phenyl]-H-pyrrolo[2,3-b]pyridin-4-yl]piperidine-4-carbonitrile]	1 to 10
Cn1cc(C#Cc2cnn3cccc(C4=CCC(C#N)CC4)c23)cn1 (centres unmarked) [Compound P-0433, 4-[3-[2-(1-methylpyrazol-4-yl)ethynyl]pyrazolo[1,5-a]pyridin-4-yl]cyclohex-3-ene-1-carbonitrile]	0.0001 to 0.1
